pEC50: −log10 of the molar value. In brackets after ≈: the same amount, converted by molar mass. Entries after “also recorded” stand apart in the source; their conditions may differ. Counter-ions that a name gives are not always drawn.
How the values were obtained:
Male ZDF rats = assay: Oral glucose tolerance test (oGTT) in male ZDF rats; assay type: in vivo; conditions: for % Inhibition of Glucose Excursion: AUC relative to vehicle control, ZDF rats
Protocol: Male ZDF rats were fasted for 18 h and randomly grouped (n=6) to receive the GPR119 agonist Compound 1(3 or 10 mg/kg), the control compound, Januvia (3 mg/kg), or a combination of Compound 1(3 mg/kg) and Januvia (3 mg/kg). The compounds were delivered orally via a gavage needle (p.o., volume 4 mL/kg) 60 min prior to glucose bolus (3 g/kg) (time=−60 min in FIG. 4), with a separate group receiving vehicle (20% hydroxypropyl-beta-cyclodextrin (HPCD)) as control. At time 0 min, a glucose bolus was administered. Levels of blood glucose were assessed using a glucometer (One-Touch Ultra™, LifeScan) at time −60 min (prior to compound administration), at 0 min (at time when glucose bolus was given), and at 30, 60, 90, and 120 min post glucose bolus. The plasma glucose excursion curve (FIG. 4) is shown.

humans = conditions: human studies, infusion, over 24 hours; cited from earlier work
Solubility of Compound 1 = assay type: physicochemical
Protocol: To a solution of 5-fluoro-4-(2-methyl-6-(methylsulfonyl)pyridin-3-yloxy)-6-(piperidin-4-yloxy)pyrimidine hydrochloride (200 mg, 0.477 mmol) and 2,5-dioxopyrrolidin-1-yl 1-methylcyclopropyl carbonate (247 mg, 1.16 mmol) in DCM (3.5 mL) was added triethylamine (0.333 mL, 2.387 mmol). The reaction mixture was stirred at room temperature for 2 h. The mixture was concentrated under reduced pressure and the residue was purified by silica gel flash column chromatography to give the title compound as a white solid (183 mg, 80% yield). Exact mass calculated for C21H25FN4O6S: 480.15. found: LCMS m/z=481.2 [M+H]^+; ^1H NMR (400 MHz, CDCl3) δ ppm 0.63-0.66 (m, 2H), 0.87-0.90 (m, 2H), 1.56 (s, 3H), 1.82-1.84 (m, 2H), 2.02-2.04 (m, 2H), 2.55 (s, 3H), 3.35 (s, 3H), 3.28-3.37 (m, 2H), 3.78-3.79 (m, 2H), 5.36-5.40 (m, 1H), 7.68 (d, J=12 Hz, 1H), 8.01 (d, J=8 Hz, 1H), 8.07 (s, 1H). Solubility: <0.001 mg/mL (H2O); 2.758 mg/mL (20% HPCD).

Male 129SVE mice [1] = assay: Oral glucose tolerance test (oGTT) in male 129SVE mice; assay type: in vivo; conditions: for Plasma Glucose, Mean: n=6
Protocol: Male 129SVE mice (approximately 8 weeks old) were fasted for 18 h and randomly grouped (n=6) to receive a GPR119 agonist (Compound 1) at 3, or 10 mg/kg body weight. Compound 1 was delivered orally via a gavage needle (p.o., volume at 4 mL/kg) 30 minutes prior to glucose bolus (3 g/kg) (time=−30 min in FIG. 1), with a separate group receiving vehicle (20% hydroxypropyl-beta-cyclodextrin (HPCD) as a control. At time 0 min the glucose bolus was administered. Levels of blood glucose were assessed using a glucometer (One-Touch Ultra™, LifeScan) at time −30 min (prior to compound administration), at 0 min (when the glucose bolus was given), and at 20, 40, 60, 120 min post glucose bolus. The plasma glucose level (Table A) and glucose excursion curve (FIG. 1) are shown. Glucose excursion reduction (area under the curve (AUC)) in compound-treated animals relative to vehicle control is shown in FIG. 2.

Male 129SVE mice [2] = assay: GIP release in male 129SVE mice (plasma total GIP, ELISA); assay type: in vivo; conditions: 3 or 30 mg/kg p.o., 45 min
Protocol: Male 129SVE mice (approximately 8 weeks old) were fasted for 18 h and randomly grouped (n=6) to receive a GPR119 agonist (Compound 1) at 3 or 30 mg/kg body weight. Compound 1 was delivered orally via a gavage needle (4 mL/kg), and after 45 min, a blood sample was collected to determine plasma total GIP levels. A separate control group received vehicle (PET (80% PEG:10% Ethanol:10% Tween80™)). Plasma GIP levels were determined using a GIP (total) ELISA kit from Millipore.

GPR119 receptor = target: T1, GPR119 receptor (Homo sapiens, UniProt Q8TDV5); assay: HTRF cAMP detection assay in CHO-K1 cells stably expressing the GPR119 receptor; assay type: cell-based
T1 construct: expressed in transfected cells
T1 sequence (Q8TDV5 2-335): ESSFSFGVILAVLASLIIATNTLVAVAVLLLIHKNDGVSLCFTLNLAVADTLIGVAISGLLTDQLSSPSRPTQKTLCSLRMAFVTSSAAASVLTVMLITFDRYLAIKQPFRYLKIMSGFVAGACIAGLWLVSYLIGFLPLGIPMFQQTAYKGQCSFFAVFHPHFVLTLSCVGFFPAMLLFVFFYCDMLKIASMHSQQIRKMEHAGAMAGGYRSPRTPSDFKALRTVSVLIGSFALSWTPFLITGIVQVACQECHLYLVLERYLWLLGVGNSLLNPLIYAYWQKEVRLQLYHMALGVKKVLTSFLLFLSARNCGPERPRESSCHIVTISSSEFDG
Protocol: GPR119 agonist, Compound 1, was evaluated in an HTRF® cAMP detection assay (Cisbio, cAMP Dynamic 2 Assay Kit; #62AM4PEJ) according to the manufacturer's instructions using CHO-K1 cells stably expressing the GPR119 receptor. CHO-K1 cells were transduced with a lentiviral vector encoding the nucleotide sequence of GPR119 (NCBI mRNA and protein reference sequences: NM_178471.2 & NP_848566). The N-terminus of the GPR119 nucleotide sequence was modified to replace the first, methionine-coding, codon with a nucleotide sequence coding for a standard, nine amino acid, hemagglutinin tag. Following transduction, cells expressing the GPR119 receptor were isolated and a single clone was isolated following standard dilution-cloning procedures. On the day of the assay, cultured CHO-GPR119 cells were harvested, suspended in assay buffer and plated into 384-well assay plates (PerkinElmer® Proxiplate® #6008280) at a density of 2,000 cells per well. A cAMP standard curve was added to each plate. Compound 1 was dissolved in DMSO, serially diluted in DMSO and then diluted in assay buffer before addition to the cells. Compound 1 was evaluated in triplicate, using 10-point, 5-fold serial dilutions starting at 10 μM. […] Plates were then incubated at room temperature for 1 h prior to reading. Time-resolved fluorescence measurements were collected on PerkinElmer Envision™ or BMG Pherastar™ microplate readers. […]

Male SD rats = assay: Gastric emptying in male SD rats (stomach content 6 h post-dosing); assay type: in vivo; conditions: SD rats, 3, 10 or 30 mg/kg orally
Protocol: Male SD rats were fasted for 18 h and randomly grouped (n=5). Fasted rats were allowed to access food for 30 min, and the amount of food consumed was recorded for each rat. At the end of the 30 min food intake, rats were put in cages without food and water, and dosed with Compound 1 at 3, 10, or 30 mg/kg, or vehicle control (20% HPCD) orally, or with exendin-4 (Ex-4) at 100 μg/kg i.p. Six hours post-dosing, rats were euthanized with CO2, and stomach content was determined.

[3] = 3 mg/kg p.o. 60 min prior to glucose bolus (3 g/kg)

Molecule: N[C@@H](CC(=O)N1CCn2c(nnc2C(F)(F)F)C1)Cc1cc(F)c(F)cc1F [Januvia, dihydrogenphosphate salt of 3(R)-amino-1-[3-(trifluoromethyl)-5,6,7,8-tetrahydro[1,2,4]triazolo[4,3-a]pyrazin-7-yl]-4-(2,4,5-trifluorophenyl)butan-1-one, reference compound]
- % Inhibition of Glucose Excursion (Male ZDF rats; [3]): 57.0%

Molecule: PYY3-36: form of Peptide YY generated from PYY1-36 by cleavage of the N-terminal Tyr and Pro residues by DPP-IV
- Reduction of food intake (humans): 33%

Molecule: Cc1nc(S(C)(=O)=O)ccc1Oc1ncnc(OC2CCN(C(=O)OC3(C)CC3)CC2)c1F [Compound 1, 1-methylcyclopropyl 4-(5-fluoro-6-(2-methyl-6-(methylsulfonyl)pyridin-3-yloxy)pyrimidin-4-yloxy)piperidine-1-carboxylate]
- solubility (Solubility of Compound 1; 20% HPCD, aqueous with cosolvent or surfactant or cyclodextrin): 2760 µg/mL (≈ 5.74 mM)
- solubility (Solubility of Compound 1; water, H2O): < 1 µg/mL
- Plasma Glucose, Mean (Male 129SVE mice [1]; 3 mg/kg p.o., 0 min relative to glucose bolus): 92.0 mg/dL
- Plasma Glucose, Mean (Male 129SVE mice [1]; 3 mg/kg p.o., 20 min post glucose bolus (3 g/kg)): 207.0 mg/dL
- Plasma Glucose, Mean (Male 129SVE mice [1]; 3 mg/kg p.o., 40 min post glucose bolus (3 g/kg)): 280.6667 mg/dL
- Plasma Glucose, Mean (Male 129SVE mice [1]; 3 mg/kg p.o., 60 min post glucose bolus (3 g/kg)): 248.8333 mg/dL
- Plasma Glucose, Mean (Male 129SVE mice [1]; 3 mg/kg p.o., 120 min post glucose bolus (3 g/kg)): 161.8333 mg/dL
- Plasma Glucose, Mean (Male 129SVE mice [1]; 3 mg/kg p.o., -30 min relative to glucose bolus (prior to compound administration)): 75.17 mg/dL
- Plasma Glucose, Mean (Male 129SVE mice [1]; 10 mg/kg p.o., 0 min relative to glucose bolus): 94.5 mg/dL
- Plasma Glucose, Mean (Male 129SVE mice [1]; 10 mg/kg p.o., 20 min post glucose bolus (3 g/kg)): 190.3333 mg/dL
- Plasma Glucose, Mean (Male 129SVE mice [1]; 10 mg/kg p.o., 40 min post glucose bolus (3 g/kg)): 229.6667 mg/dL
- Plasma Glucose, Mean (Male 129SVE mice [1]; 10 mg/kg p.o., 60 min post glucose bolus (3 g/kg)): 199.6667 mg/dL
- Plasma Glucose, Mean (Male 129SVE mice [1]; 10 mg/kg p.o., 120 min post glucose bolus (3 g/kg)): 150.6667 mg/dL
- Plasma Glucose, Mean (Male 129SVE mice [1]; 10 mg/kg p.o., -30 min relative to glucose bolus (prior to compound administration)): 71.5 mg/dL
- Effect on blood glucose after challenge with glucose (in words) (Male 129SVE mice [1]; male 129SVE mice, 3 or 10 mg/kg p.o.): lowered blood glucose
- Effect on plasma glucose levels in oGTT (in words) (Male 129SVE mice [1]; male 129SVE mice, dose of 10 mg/kg): significantly reduced plasma glucose levels
- Release of GIP (plasma total GIP, in words) (Male 129SVE mice [2]): stimulates the release of GIP
- Agonist activity at GPR119 (in words) (GPR119 receptor): potent and selective agonist; also recorded: full agonist
- pEC50 (GPR119 receptor; CHO-K1 cells stably expressing GPR119, 1 h incubation): 7.83
- % Inhibition of Glucose Excursion (Male ZDF rats; [3]): 14.8%
- % Inhibition of Glucose Excursion (Male ZDF rats; 10 mg/kg p.o. 60 min prior to glucose bolus (3 g/kg)): 26.2%
- Effect on blood glucose after a challenge with glucose (in words) (Male ZDF rats; diabetic ZDF rats, 3 or 10 mg/kg p.o.): lowered blood glucose
- Effect on gastric emptying (in words) (Male SD rats): had an effect on gastric emptying at high dosage (30 mg/kg), but that effect was less pronounced than the positive control, Ex-4
